One assay addresses HSD17B13 enzyme (Homo sapiens (Human), UniProt Q7Z5P4). The assay can be described thus: hHSD17B13 IC50 Assay (FAC beta-estradiol), purified protein enzyme activity assay with NAD(P)H-Glo luciferase readout. In kind it is biochemical. Conditions: geometric mean, 12 μM FAC beta-estradiol, 500 μM NAD+, read-out: hHSD17B13_IC50 GMean IC50. The procedure:
The following protocols may of course be varied by those skilled in the art. hHSD17B13 IC50 Assay (FAC beta-estradiol)
HSD17B13 enzyme inhibition potency of test compounds was determined using a purified protein biochemical enzyme activity assay, using NAD(P)H-Glo luciferase readout (Promega). HSD17B13 enzyme uses the oxidized form of nicotinamide adenine dinucleotide (NAD+) as a cofactor during metabolism of Beta-Estradiol (substrate) to […], while converting NAD+ to the reduced form (NADH). The Promega NAD(P)H-Glo™ assay is a homogeneous bioluminescent assay that generates a light signal from biochemical reactions that contain NADH (or nicotinamide adenine dinucleotide phosphate, NADPH). In the presence of NADH (or NADPH), the enzyme Reductase reduces a proluciferin reductase substrate to form luciferin. Luciferin then is quantified using Ultra-Glo™ Recombinant Luciferase (rLuciferase), and the light signal produced is proportional to the amount of NAD(P)H in the sample. […] The reaction was initiated by the addition of 2 μL/well purified HSD17B13 protein (30 nM FAC in assay buffer). Compound, substrate mix and HSD17B13 protein was incubated in the dark at room temperature for 2 hours before the addition of 3 μL/well NAD(P)H-Glo detection reagent, prepared from luciferase detection reagent and reductase/reductase substrate, as per manufacturer's instructions (Promega, G9061). Detection reagent was incubated in the dark for 1 hour at room temperature before plates were read on the Envision plate reader (Perkin Elmer) using a luminescent protocol. Data expressed as relative luminescent units (RLUs) were then normalized to control wells using Activity Base (IDBS). Zero percent effect (ZPE) was defined as RLUs generated from uninhibited HSD17B13 protein (vehicle control).

A further assay concerns the target wild type human HSD17B13 (Homo sapiens (Human), UniProt Q7Z5P4). The assay can be described thus: HEK_Beta-Est LCMS_IC50_Tekcel, whole-cell HEK-HSD17B13 inhibition assay, estrone production by LCMS. In kind it is cell-based. As to conditions: geometric mean, HEK cells stably expressing wild type human HSD17B13, 25 μM FAC beta-estradiol, read-out: HEK_Beta-Est LCMS_IC50—Tekcel GMean IC50. A digest of the protocol: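 HEK cells expressing wild-type human HSD17B13 were preincubated with compound for 1 hour at 37° C, then the beta-estradiol/NAD+ reaction ran for 2 hours at 37° C. Estrone formed was quantified by LCMS as product area ratio and normalized to uninhibited vehicle-control wells.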

Structures can show the parent of a compound that is named as a salt. Some results are limits rather than exact numbers.

Chain of wild type human HSD17B13 (Q7Z5P4 20-300): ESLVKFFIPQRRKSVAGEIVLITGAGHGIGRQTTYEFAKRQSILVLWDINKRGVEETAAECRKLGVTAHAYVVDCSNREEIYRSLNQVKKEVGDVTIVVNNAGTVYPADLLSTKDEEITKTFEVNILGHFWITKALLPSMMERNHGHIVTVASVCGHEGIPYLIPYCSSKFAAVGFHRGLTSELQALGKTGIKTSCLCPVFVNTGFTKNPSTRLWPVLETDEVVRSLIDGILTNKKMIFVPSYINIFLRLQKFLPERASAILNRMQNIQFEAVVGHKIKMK
Chain of HSD17B13 enzyme (Q7Z5P4 20-300): as above

For `O=C(NC[C@H]1CC[C@H](n2cc3ccc(C(F)(F)F)cc3n2)CC1)c1cc(F)c(O)c(F)c1` [Example 137, 3,5-difluoro-4-hydroxy-N-({(1r,4r)-4-[6-(trifluoromethyl)-2H-indazol-2-yl]cyclohexyl}methyl) benzamide, ammonium salt], the values for the IC50 at HSD17B13 enzyme and at wild type human HSD17B13 were 25 nM and 280 nM, respectively.
For the molecule `COc1cccc2nn([C@H]3CC[C@H](CNC(=O)c4cc(F)c(O)c(F)c4)CC3)cc12` [Example 122, 3,5-difluoro-4-hydroxy-N-{[(1r,4r)-4-(4-methoxy-2H-indazol-2-yl)cyclohexyl]methyl} benzamide], the IC50 on HSD17B13 enzyme is 14 nM; on wild type human HSD17B13 it was 310 nM.
In the case of `COc1ccc(-c2noc([C@]34CC[C@](CNC(=O)c5cc(F)c(O)c(F)c5)(CC3)CC4)n2)nn1` [Example 124, 3,5-difluoro-4-hydroxy-N-({4-[3-(6-methoxypyridazin-3-yl)-1,2,4-oxadiazol-5-yl]bicyclo [2.2.2]octan-1-yl}methyl)benzamide], the IC50 at HSD17B13 enzyme stood at 7.1 nM; at wild type human HSD17B13, 160 nM.
For `O=C(NC[C@H]1CC[C@H](c2nc(-c3ncc(C(F)(F)F)cn3)no2)CC1)c1cc(F)c(O)c(F)c1` [Example 4, 3,5-Difluoro-4-hydroxy-N-{[(1r,4r)-4-{3-[5-(trifluoromethyl)pyrimidin-2-yl]-1,2,4-oxadiazol-5-yl}cyclohexyl]methyl}benzamide] the same measures were 5.5 nM and 290 nM.
Take `O=C(NC[C@H]1CC[C@H](n2cc3cc(Cl)ccc3n2)CC1)c1cc(F)c(O)c(F)c1` [Example 132, N-{[(1r,4r)-4-(5-chloro-2H-indazol-2-yl)cyclohexyl]methyl}-3,5-difluoro-4-hydroxybenzamide, ammonium salt]: the figures for the IC50 on HSD17B13 enzyme and on wild type human HSD17B13 were 14 nM and 140 nM, respectively.
Regarding `Cn1cc(-c2ccc3cn([C@H]4CC[C@H](CNC(=O)c5cc(F)c(O)c(F)c5)CC4)nc3c2)c(C(F)F)n1` [Example 34, N-{[(1r,4r)-4-{6-[3-(difluoromethyl)-1-methyl-1H-pyrazol-4-yl]-2H-indazol-2-yl}cyclohexyl]methyl}-3,5-difluoro-4-hydroxybenzamide], the IC50 at HSD17B13 enzyme is 4.3 nM; on wild type human HSD17B13 it was 310 nM.
In the same order, the values of `O=C(NC[C@H]1CC[C@H](n2cc3ccc(-c4cnn(C(F)F)c4)cc3n2)CC1)c1cc(F)c(O)c(F)c1` [Example 44, N-{[(1r,4r)-4-{6-[1-(difluoromethyl)-1H-pyrazol-4-yl]-2H-indazol-2-yl}cyclohexyl]methyl}-3,5-difluoro-4-hydroxybenzamide] are below 2.6 nM and 92 nM.
As for `CC(C)(O)c1cncc(-c2ccc3cn([C@H]4CC[C@H](CNC(=O)c5cc(F)c(O)c(F)c5)CC4)nc3c2)c1` [Example 59, 3,5-difluoro-4-hydroxy-N-{[(1r,4r)-4-{6-[5-(2-hydroxypropan-2-yl)pyridin-3-yl]-2H-indazol-2-yl}cyclohexyl]methyl}benzamide], the IC50 at HSD17B13 enzyme was found to be 11 nM; on wild type human HSD17B13 it was 470 nM.
For the molecule `Cc1ccnc(-c2ccc3cn([C@H]4CC[C@H](CNC(=O)c5cc(F)c(O)c(F)c5)CC4)nc3c2)n1` [Example 53, 3,5-difluoro-4-hydroxy-N-({(1r,4r)-4-[6-(4-methylpyrimidin-2-yl)-2H-indazol-2-yl]cyclohexyl}methyl)benzamide], the IC50 on HSD17B13 enzyme stood at 4.4 nM; at wild type human HSD17B13, 200 nM.
In the same order, the values of `O=C(NC[C@H]1CC[C@H](n2cc3cc(C(F)(F)F)ncc3n2)CC1)c1cc(F)c(O)c(F)c1` [Example 147, 3,5-difluoro-4-hydroxy-N-({(1r,4r)-4-[5-(trifluoromethyl)-2H-pyrazolo[3,4-c]pyridin-2-yl]cyclohexyl}methyl) benzamide, ammonium salt] are 17 nM and 430 nM.
Consider `CC(C)(C)C(=O)Nc1ccc(-c2noc([C@H]3CC[C@H](CNC(=O)c4cc(F)c(O)c(F)c4)CC3)n2)nn1` [Example 17, N-{[(1r,4r)-4-{3-[6-(2,2-Dimethylpropanamido)pyridazin-3-yl]-1,2,4-oxadiazol-5-yl}cyclohexyl]methyl}-3,5-difluoro-4-hydroxybenzamide, ammonium salt], for which the 50% inhibitory concentration (IC50) on HSD17B13 enzyme is 12 nM; on wild type human HSD17B13, 270 nM.
For `O=C(NC[C@H]1CC[C@H](n2cc3ccc(-c4cnccn4)cc3n2)CC1)c1cc(F)c(O)c(F)c1` [Example 65, 3,5-difluoro-4-hydroxy-N-({(1r,4r)-4-[6-(pyrazin-2-yl)-2H-indazol-2-yl]cyclohexyl}methyl) benzamide] the same measures were 13 nM and 170 nM.
In the same order, the values of `Cn1nc(-c2noc([C@]34CC[C@](CNC(=O)c5cc(F)c(O)c(F)c5)(CC3)CC4)n2)ccc1=O` [Example 146, 3,5-difluoro-4-hydroxy-N-({4-[3-(1-methyl-6-oxo-1,6-dihydro-pyridazin-3-yl)-1,2,4-oxadiazol-5-yl]bicyclo[2.2.2]octan-1-yl}methyl) benzamide] are 5.6 nM and 290 nM.
For `O=C(NC[C@H]1CC[C@H](c2nc3ccccc3o2)CC1)c1cc(F)c(O)c(F)c1` [Example 1, N-{[(1r,4r)-4-(1,3-Benzoxazol-2-yl)cyclohexyl]methyl}-3,5-difluoro-4-hydroxybenzamide] the same measures were 14 nM and 490 nM.
Take `COc1ncc(-c2ccc3cn([C@H]4CC[C@H](CNC(=O)c5cc(F)c(O)c(F)c5)CC4)nc3c2)cn1` [Example 73, 3,5-difluoro-4-hydroxy-N-({(1r,4r)-4-[6-(2-methoxypyrimidin-5-yl)-2H-indazol-2-yl]cyclohexyl}methyl) benzamide]: the values for the IC50 on HSD17B13 enzyme and at wild type human HSD17B13 were 13 nM and 170 nM, respectively.
Turning to `Cc1ccc(-c2noc([C@]34CC[C@](CNC(=O)c5cc(F)c(O)c(F)c5)(CC3)CC4)n2)nn1` [Example 123, 3,5-difluoro-4-hydroxy-N-({4-[3-(6-methylpyridazin-3-yl)-1,2,4-oxadiazol-5-yl]bicyclo[2.2.2]octan-1-yl}methyl)benzamide], the IC50 worked out at 10 nM at HSD17B13 enzyme and 460 nM on wild type human HSD17B13.
For `O=C(NC[C@H]1CC[C@H](c2noc(-c3cc4ccccn4n3)n2)CC1)c1cc(F)c(O)c(F)c1` [Example 176, 3,5-difluoro-4-hydroxy-N-({(1r,4r)-4-[5-(pyrazolo[1,5-a]pyridin-2-yl)-1,2,4-oxadiazol-3-yl]cyclohexyl}methyl) benzamide] the same measures were 11 nM and 190 nM.
In the same order, the values of `Cn1nccc1-c1ccc2cn([C@H]3CC[C@H](CNC(=O)c4cc(F)c(O)c(F)c4)CC3)nc2c1` [Example 62, 3,5-difluoro-4-hydroxy-N-({(1r,4r)-4-[6-(1-methyl-1H-pyrazol-5-yl)-2H-indazol-2-yl]cyclohexyl}methyl) benzamide] are 8.7 nM and 350 nM.
In the case of `COc1cnc(-c2ccc3cn([C@H]4CC[C@H](CNC(=O)c5cc(F)c(O)c(F)c5)CC4)nc3c2)nc1` [Example 66, 3,5-difluoro-4-hydroxy-N-({(1r,4r)-4-[6-(5-methoxypyrimidin-2-yl)-2H-indazol-2-yl]cyclohexyl}methyl) benzamide], the IC50 at HSD17B13 enzyme was 7.5 nM; at wild type human HSD17B13, 180 nM.
Turning to `O=C(NC[C@H]1CC[C@H](c2noc(-c3ccccc3)n2)CC1)c1cc(F)c(O)c(F)c1` [Example 138, 3,5-difluoro-4-hydroxy-N-{[(1r,4r)-4-(5-phenyl-1,2,4-oxadiazol-3-yl)cyclohexyl]methyl}benzamide], the results for the IC50 on HSD17B13 enzyme and at wild type human HSD17B13 were 16 nM and 200 nM, respectively.
Turning to `Cn1cc(-c2cc3cn([C@H]4CC[C@H](CNC(=O)c5cc(F)c(O)c(F)c5)CC4)nc3cn2)cn1` [Example 200, 3,5-difluoro-4-hydroxy-N-({(1r,4r)-4-[5-(1-methyl-1H-pyrazol-4-yl)-2H-pyrazolo[3,4-c]pyridin-2-yl]cyclohexyl}methyl) benzamide], the IC50 at HSD17B13 enzyme is 10 nM; on wild type human HSD17B13, 350 nM.
On to `O=C(NC[C@H]1CC[C@H](n2cc3ccc(-c4ncc(CO)cn4)cc3n2)CC1)c1cc(F)c(O)c(F)c1` [Example 58, 3,5-difluoro-4-hydroxy-N-{[(1r,4r)-4-{6-[5-(hydroxymethyl)pyrimidin-2-yl]-2H-indazol-2-yl}cyclohexyl]methyl} benzamide], for which the IC50 at HSD17B13 enzyme is 25 nM; at wild type human HSD17B13 it was 280 nM.
On to `COc1cc2cn([C@H]3CC[C@H](CNC(=O)c4cc(F)c(O)c(F)c4)CC3)nc2cn1` [Example 6, 3,5-Difluoro-4-hydroxy-N-{[(1r,4r)-4-(5-methoxy-2H-pyrazolo[3,4-c]pyridin-2-yl)cyclohexyl]methyl}benzamide], for which the IC50 was 21 nM on HSD17B13 enzyme and 440 nM on wild type human HSD17B13.
